Tested on: neuraminidase from Arthrobacter Sp. (Arthrobacter ureafaciens VR-1, NCIMB 40717), purified, molecular weight 55,000-60,000
Assay: Neuraminidase enzymatic activity and inhibition (thiobarbituric acid method, released NANA)
Format: biochemical
Settings: inhibition of the neuraminidase by NANA; GDia as substrate in the activity test
Procedure: The enzymatic activity of the neuraminidase is determined at the saturation levels of the substrate concentration, corresponding to 5 times the Km value.
The released product is measured by employing the colorimetric technique (thiobarbituric acid method). For instance, when the neuraminidase enzyme and its substrate (a ganglioside like GDia) are incubated for 5-10 minutes and the NANA, hydrolyzed from the substrate, is employed for evaluating the enzymatic activity, the NANA released in the solution undergoes a series of reactions, in order to determine its actual amount.
Since NANA is also employed for obtaining the culture media of the steady state wherefrom the filtrate is extracted, a few check reactions are carried out, in order to ascertain that the measured NANA be the one coming from the reaction between enzyme and substrate and not the one coming as a residue from the original culture.
For instance, a few tests are carried out on 3 test-tubes, as reported hereinbelow. […]
In the first test-tube (S) there should be no NANA. Should NANA be retrieved in the second test-tube (B), its spectrophotometric reading is subtracted from the reading obtained from the reaction in test-tube three (E). The enzyme activity is therefore indirectly measured as the amount of hydrolized NANA per minute at pH 5.3 and at 37° C., using GDia as the substrate. […]

**Q.** For `CC(=O)N[C@H]1[C@H]([C@H](O)[C@H](O)CO)OC(O)(C(=O)O)C[C@@H]1O` (stereo partly shown) [NANA, N-acetyl-neuraminic acid], which Ki is on record?
**A.** ~300 µM
